The target in assay [1] is T1, Neuropeptide Y receptor type 2 (Homo sapiens, UniProt P49146).
T1 sequence (P49146 whole entry): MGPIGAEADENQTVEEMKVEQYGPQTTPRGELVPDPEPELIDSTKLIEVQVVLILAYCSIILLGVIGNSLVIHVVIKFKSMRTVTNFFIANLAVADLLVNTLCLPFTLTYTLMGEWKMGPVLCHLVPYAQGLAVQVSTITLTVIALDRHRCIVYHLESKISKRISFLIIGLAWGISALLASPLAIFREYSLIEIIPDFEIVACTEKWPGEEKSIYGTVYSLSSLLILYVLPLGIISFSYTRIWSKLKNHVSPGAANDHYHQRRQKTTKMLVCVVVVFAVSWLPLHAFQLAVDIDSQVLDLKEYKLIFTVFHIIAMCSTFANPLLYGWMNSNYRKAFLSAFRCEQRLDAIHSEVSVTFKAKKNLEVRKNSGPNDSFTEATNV

The target in assay [2] is T2, Muscarinic acetylcholine receptor M2 (Homo sapiens, UniProt P08172).
T2 sequence (P08172 whole entry): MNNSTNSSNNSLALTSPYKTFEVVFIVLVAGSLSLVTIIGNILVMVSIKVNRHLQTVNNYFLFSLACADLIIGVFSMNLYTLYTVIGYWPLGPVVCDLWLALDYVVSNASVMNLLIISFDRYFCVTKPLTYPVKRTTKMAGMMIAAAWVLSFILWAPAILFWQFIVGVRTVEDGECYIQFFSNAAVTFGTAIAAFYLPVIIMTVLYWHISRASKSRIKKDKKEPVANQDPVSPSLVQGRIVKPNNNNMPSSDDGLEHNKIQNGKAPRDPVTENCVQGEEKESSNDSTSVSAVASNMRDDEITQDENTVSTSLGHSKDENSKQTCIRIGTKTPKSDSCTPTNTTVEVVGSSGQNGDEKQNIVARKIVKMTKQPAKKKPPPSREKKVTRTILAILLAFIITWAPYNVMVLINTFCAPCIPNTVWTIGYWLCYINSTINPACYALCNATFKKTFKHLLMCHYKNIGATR

The target of a further assay is T3, Androgen receptor (Rattus norvegicus, UniProt P15207).
T3 sequence (P15207 whole entry): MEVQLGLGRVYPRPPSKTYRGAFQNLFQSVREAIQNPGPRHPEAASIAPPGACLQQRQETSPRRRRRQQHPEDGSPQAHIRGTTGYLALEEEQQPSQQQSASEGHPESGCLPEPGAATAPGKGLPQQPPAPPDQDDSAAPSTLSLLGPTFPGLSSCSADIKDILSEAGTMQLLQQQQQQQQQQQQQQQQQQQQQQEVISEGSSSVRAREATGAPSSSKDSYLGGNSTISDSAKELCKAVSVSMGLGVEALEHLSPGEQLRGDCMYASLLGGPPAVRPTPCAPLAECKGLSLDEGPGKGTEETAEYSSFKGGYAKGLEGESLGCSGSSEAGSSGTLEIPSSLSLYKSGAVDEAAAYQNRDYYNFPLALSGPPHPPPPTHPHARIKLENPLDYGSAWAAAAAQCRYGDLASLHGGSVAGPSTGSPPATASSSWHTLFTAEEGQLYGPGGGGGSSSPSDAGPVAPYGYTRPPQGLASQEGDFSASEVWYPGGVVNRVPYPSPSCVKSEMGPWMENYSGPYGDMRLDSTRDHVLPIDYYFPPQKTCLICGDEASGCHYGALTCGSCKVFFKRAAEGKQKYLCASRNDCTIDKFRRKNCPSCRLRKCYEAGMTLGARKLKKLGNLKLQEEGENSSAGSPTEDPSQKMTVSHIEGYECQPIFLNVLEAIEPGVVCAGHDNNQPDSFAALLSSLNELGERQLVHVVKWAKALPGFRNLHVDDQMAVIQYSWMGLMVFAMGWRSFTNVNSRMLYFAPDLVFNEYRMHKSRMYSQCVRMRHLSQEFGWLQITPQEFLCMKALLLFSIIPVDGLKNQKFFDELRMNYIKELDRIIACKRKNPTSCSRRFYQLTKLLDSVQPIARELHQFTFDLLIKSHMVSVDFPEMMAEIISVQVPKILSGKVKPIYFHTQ

The next assay deals with T4, Estrogen receptor (Homo sapiens, UniProt P03372).
T4 sequence (P03372 whole entry): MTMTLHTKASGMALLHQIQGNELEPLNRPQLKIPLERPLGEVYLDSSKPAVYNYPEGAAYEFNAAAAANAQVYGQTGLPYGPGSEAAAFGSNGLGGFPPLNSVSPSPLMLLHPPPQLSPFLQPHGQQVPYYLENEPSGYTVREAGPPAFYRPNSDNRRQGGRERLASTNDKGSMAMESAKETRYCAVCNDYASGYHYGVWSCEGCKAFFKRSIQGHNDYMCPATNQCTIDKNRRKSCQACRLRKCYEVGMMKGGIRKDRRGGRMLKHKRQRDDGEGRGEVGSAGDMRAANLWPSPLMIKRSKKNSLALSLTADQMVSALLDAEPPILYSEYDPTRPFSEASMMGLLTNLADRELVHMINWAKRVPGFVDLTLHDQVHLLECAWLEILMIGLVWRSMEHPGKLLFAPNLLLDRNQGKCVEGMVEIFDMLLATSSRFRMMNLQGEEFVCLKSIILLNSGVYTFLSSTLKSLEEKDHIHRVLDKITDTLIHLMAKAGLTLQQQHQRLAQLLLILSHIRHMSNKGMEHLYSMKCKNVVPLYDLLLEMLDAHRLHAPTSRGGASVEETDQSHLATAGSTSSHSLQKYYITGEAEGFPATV
It counts as functional.
Also: assay procedure not described here.

One may read the AC50 as the concentration giving half of the maximal activity seen. Regarding `CC(N)Cc1ccccc1` (configuration not stated) [AMPHETAMINE], the AC50 was greater than 30 µM in assay [1], greater than 10 µM in assay [2], greater than 30 µM on Androgen receptor and greater than 30 µM at Estrogen receptor.

`COC(=O)[C@@H]1CC2=CC(=O)CC[C@]2(C)[C@@]23O[C@@H]2C[C@@]2(C)[C@@H](CC[C@@]24CCC(=O)O4)[C@H]13` [EPLERENONE]: the AC50 was greater than 30 µM in assay [1], greater than 10 µM in assay [2] and greater than 30 µM on Estrogen receptor.

Values taken from ChEMBL document CHEMBL5291721, “A preclinical secondary pharmacology resource illuminates target-adverse drug reaction associations of marketed drugs” (Nat Commun, 2023).
